Measurements from PMC12384515 (2023).

Experiments:
Assay in all cases: fluorescent intercalator displacement
Settings in all cases: ethidium bromide (5 μM) displaced; DNA 10 μM/bp; per base
[1] = tested on: A5T5 (DNA, duplex) GGGAAAAATTTTTCCC
[2] = tested on: (AT)5 (DNA, duplex) GGGATATATATATCCC
[3] = tested on: G5C5 (DNA, duplex) AAAGGGGGCCCCCTTT

Structure (SMILES)	C50 [1] [µM]	C50 [2] [µM]	C50 [3] [µM]
CN(C)c1ccc([C+](c2ccc(N(C)C)cc2)c2ccc3cc(N(C)C)ccc3c2)cc1	0.52 ± 0.01	0.32 ± 0.02	0.88 ± 0.01
CC1=CC(=[N+](C)C)C=CC1=C(c1ccc(N(C)C)cc1C)c1ccc(N(C)C)cc1C	2.40 ± 0.02	2.30 ± 0.03	7.21 ± 0.63
CN(C)c1ccc([C+](c2ccc(N(C)C)c(-c3ccccc3)c2)c2ccc(N(C)C)c(-c3ccccc3)c2)cc1-c1ccccc1	3.13 ± 0.01		3.36 ± 0.07
CN(C)c1ccc([C+](c2ccc(N(C)C)cc2)c2ccc(N(C)C)c(-c3ccccc3)c2)cc1		2.75 ± 0.21	
